In patent publication US20250154109A1, “SODIUM CHANNEL BLOCKING COMPOUNDS, DERIVATIVES THEREOF, AND METHODS OF THEIR USE” (LATIGO BIOTHERAPEUTICS, INC, priority 2022, published 2025):
Read-outs that look alike come from different tables or passages of the source.

Molecular target: human Nav1.8 (Homo sapiens, UniProt Q9Y5Y9)
Assay: SyncroPatch384PE assay (automated patch clamp)
Format: cell-based
Conditions: human Nav1.8/b3 CHO cells
[1] = inactivated state block (P2 measurement), read-out: P2 IC50
[2] = resting state block (P1 measurement), read-out: P1 IC50

Chain of human Nav1.8 (Q9Y5Y9 whole entry): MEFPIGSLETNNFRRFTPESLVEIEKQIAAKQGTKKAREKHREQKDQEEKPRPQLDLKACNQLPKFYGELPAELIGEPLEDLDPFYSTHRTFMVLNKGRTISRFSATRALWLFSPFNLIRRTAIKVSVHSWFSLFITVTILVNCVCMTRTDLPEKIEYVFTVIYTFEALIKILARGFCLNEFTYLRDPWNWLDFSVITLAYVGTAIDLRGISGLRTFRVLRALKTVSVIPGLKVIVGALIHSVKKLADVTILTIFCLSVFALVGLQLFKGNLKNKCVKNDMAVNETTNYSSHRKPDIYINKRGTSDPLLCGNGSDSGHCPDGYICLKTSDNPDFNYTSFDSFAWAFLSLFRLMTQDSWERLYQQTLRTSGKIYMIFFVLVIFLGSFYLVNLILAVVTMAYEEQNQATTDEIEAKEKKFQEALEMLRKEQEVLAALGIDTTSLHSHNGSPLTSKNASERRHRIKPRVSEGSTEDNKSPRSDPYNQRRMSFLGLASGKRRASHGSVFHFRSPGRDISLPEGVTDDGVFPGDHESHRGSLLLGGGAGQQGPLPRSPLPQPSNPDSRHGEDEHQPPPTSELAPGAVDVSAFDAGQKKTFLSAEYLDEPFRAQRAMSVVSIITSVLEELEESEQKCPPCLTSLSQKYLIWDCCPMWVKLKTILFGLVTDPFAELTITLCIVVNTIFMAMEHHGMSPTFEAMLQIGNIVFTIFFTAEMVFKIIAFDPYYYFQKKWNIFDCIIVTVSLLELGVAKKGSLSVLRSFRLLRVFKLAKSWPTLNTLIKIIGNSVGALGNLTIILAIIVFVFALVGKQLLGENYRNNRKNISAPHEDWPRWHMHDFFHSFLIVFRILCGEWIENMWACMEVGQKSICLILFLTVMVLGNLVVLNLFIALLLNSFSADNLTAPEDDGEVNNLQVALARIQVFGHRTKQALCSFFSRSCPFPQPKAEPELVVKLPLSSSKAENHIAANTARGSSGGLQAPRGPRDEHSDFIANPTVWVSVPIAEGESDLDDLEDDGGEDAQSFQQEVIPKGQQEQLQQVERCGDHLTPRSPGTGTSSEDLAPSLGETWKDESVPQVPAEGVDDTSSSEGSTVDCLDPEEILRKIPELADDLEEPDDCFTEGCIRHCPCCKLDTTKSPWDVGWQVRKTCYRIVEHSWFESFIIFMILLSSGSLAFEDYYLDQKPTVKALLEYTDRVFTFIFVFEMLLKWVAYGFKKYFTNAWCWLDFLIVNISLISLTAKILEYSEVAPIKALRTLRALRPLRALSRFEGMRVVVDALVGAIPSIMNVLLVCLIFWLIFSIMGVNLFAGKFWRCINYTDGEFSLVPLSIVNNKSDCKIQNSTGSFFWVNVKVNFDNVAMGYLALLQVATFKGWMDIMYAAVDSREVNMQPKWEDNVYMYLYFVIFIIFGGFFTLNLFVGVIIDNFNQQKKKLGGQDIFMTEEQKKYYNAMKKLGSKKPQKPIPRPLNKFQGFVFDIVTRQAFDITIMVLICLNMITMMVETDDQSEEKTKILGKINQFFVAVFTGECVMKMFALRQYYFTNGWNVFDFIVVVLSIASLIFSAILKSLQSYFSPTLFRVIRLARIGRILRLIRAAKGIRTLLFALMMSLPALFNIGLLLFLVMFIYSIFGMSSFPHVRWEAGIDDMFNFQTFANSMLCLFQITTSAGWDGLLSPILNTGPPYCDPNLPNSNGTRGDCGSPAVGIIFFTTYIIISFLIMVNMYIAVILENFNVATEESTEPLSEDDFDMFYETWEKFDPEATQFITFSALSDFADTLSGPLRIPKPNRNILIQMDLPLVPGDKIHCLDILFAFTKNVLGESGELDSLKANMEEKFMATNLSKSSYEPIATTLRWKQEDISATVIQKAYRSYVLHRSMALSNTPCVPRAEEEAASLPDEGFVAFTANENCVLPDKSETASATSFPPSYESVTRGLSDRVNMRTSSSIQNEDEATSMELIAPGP

IC50 [1] [nM]	IC50 [2] [nM]	SMILES
≤ 5	≤ 5	Cc1c(-c2ccccc2)cnc(N2CCCC(F)(F)CC2)c1C(=O)Nc1cccc([S@](C)(=N)=O)c1 [Example 122, (R)-2-(4,4-difluoroazepan-1-yl)-4-methyl-N-(3-(S-methylsulfonimidoyl)phenyl)-5-phenylnicotinamide]
100 to 200	100 to 200	Cc1c(-c2cnn(C)c2)cnc(N2CCCC(F)(F)CC2)c1C(=O)Nc1ccc(F)c([S@@](C)(=N)=O)c1 [Example 213, (S)-2-(4,4-difluoroazepan-1-yl)-N-(4-fluoro-3-(S-methylsulfonimidoyl)phenyl)-4-methyl-5-(1-methyl-1H-pyrazol-4-yl)nicotinamide]
5 to 50	50 to 100	Cc1c(-c2cccnc2)cnc(N2CCCC(F)(F)CC2)c1C(=O)Nc1cccc(S(C)(=N)=O)c1 (stereo not drawn) [Example 84, 6-(4,4-difluoroazepan-1-yl)-4-methyl-N-(3-(S-methylsulfonimidoyl)phenyl)-[3,3bipyridine]-5-carboxamide]
50 to 100	50 to 100	Cc1c(-c2ccc(F)cn2)cnc(N2CCCC(F)(F)CC2)c1C(=O)Nc1cccc(S(C)(=N)=O)c1 (stereo not drawn) [Example 112, 6(4,4-difluoroazepan-1-yl)-5-fluoro-4methyl-N-(3-(S-methylsulfonimidoyl)phenyl)-[2,3bipyridine]-5carboxamide]
5 to 50	5 to 50	Cc1c(-c2cnn(C)c2)cnc(N2CCCC(F)(F)CC2)c1C(=O)Nc1cccc([S@@](C)(=O)=NC(=O)CO)c1 [Example 229, (R)-2-(4,4-difluoroazepan-1-yl)-N-(3-(N-(2-hydroxyacetyl)-S-methylsulfonimidoyl)phenyl)-4-methyl-5-(1-methyl-1H-pyrazol-4-yl)nicotinamide]
≤ 5	≤ 5	Cc1c(-c2ccccc2F)cnc(N2CCCC(F)(F)CC2)c1C(=O)Nc1cccc(S(C)(=N)=O)c1 (stereo not drawn) [Example 92, 2-(4,4-difluoroazepan-1-yl)-5-(2-fluorophenyl)-4-methyl-N-(3-(S-methylsulfonimidoyl)phenyl)nicotinamide]
≤ 5	≤ 5	CNCC(=O)N=[S@](C)(=O)c1cccc(NC(=O)c2c(N3CCCC(F)(F)CC3)ncc(-c3cc(F)cc(F)c3)c2C)c1 [Example 62, (R)-2-(4,4-difluoroazepan-1-yl)-5-(3,5-difluorophenyl)-4-methyl-N-(3-(S-methyl-N-(methylglycyl)sulfonimidoyl)phenyl)nicotinamide]

More lines, now with the values behind:

SMILES	IC50 [1] [nM]	IC50 [2] [nM]
Cc1c(Cl)c(C(F)(F)F)nc(N2CCCC(F)(F)CC2)c1C(=O)Nc1cccc(S(C)(=N)=O)c1 (stereo not drawn) [Example 41, 5-Chloro-2-(4,4-difluoroazepan-1-yl)-4-methyl-N-(3-(S-methylsulfonimidoyl)phenyl)-6-(trifluoromethyl)nicotinamide]	≤ 5	≤ 5
Cc1c(C(F)(F)F)nnc(N2CC3(COC3)C2)c1C(=O)Nc1cccc(S(C)(=N)=O)c1 (stereo not drawn) [Example 100, 5-methyl-N-(3-(S-methylsulfonimidoyl)phenyl)-3-(2-oxa-6-azaspiro[3.3]heptan-6-yl)-6-(trifluoromethyl)pyridazine-4-carboxamide]	> 200	> 200
Cc1nc(N2CCCC(F)(F)CC2)c(C(=O)Nc2cccc(S(C)(=N)=O)c2)cc1C(F)(F)F (stereo not drawn) [Example 3, 2-(4,4-difluoroazepan-1-yl)-6-methyl-N-(3-(S-methylsulfonimidoyl)phenyl)-5-(trifluoromethyl)nicotinamide]	≤ 5	≤ 5
NC(=O)c1cccc(NC(=O)c2nnc(C(F)(F)F)cc2N2CCCC(F)(F)CC2)c1 [Example 38, N-(3-Carbamoylphenyl)-4-(4,4-difluoroazepan-1-yl)-6-(trifluoromethyl)pyridazine-3-carboxamide]	> 200	> 200
Cc1c(-c2ccc(C#N)cc2)cnc(N2CCCC(F)(F)CC2)c1C(=O)NC12CC(C(N)=O)(C1)C2 [Example 134, N-(3-carbamoylbicyclo[1.1.1]pentan-1-yl)-5-(4-cyanophenyl)-2-(4,4-difluoroazepan-1-yl)-4-methylnicotinamide]	> 200	> 200
